The structures appear in SMILES notation.

This data set can be described thus: Storage Stability Test (coating fluid). The data set is classed as physicochemical. More on the design: key: Excellent: Turbidity or the like derived from crystal precipitation is not present even after storage of coating fluid; Bad: Turbidity or the like derived from precipitation of the charge transport substance is present after storage of coating fluid. Conditions: charge transport layer coating fluid (60 parts substance, 100 parts polycarbonate PD, tetrahydrofuran/toluene 8/2) stored at −5 to 0° C. for 2 months, checked for turbidity. How it is done: As the binder resin, the polycarbonate resin (Mv=39,200) having a repeating unit represented by the structural formula (PD) was used. Then, 60 parts by mass of the charge transport substance, 100 parts by mass of the binder resin, 2 parts by mass of an antioxidant having a structure represented by the following formula (AOX2), and 0.05 parts by mass of a silicone oil as a leveling agent were dissolved in 540 parts by mass of a mixed solvent of tetrahydrofuran/toluene (mass ratio: 8/2) to prepare a charge transport layer coating fluid for coating fluid storage stability test.
The coating fluid obtained was placed in a glass sealed bottle and stored under the condition of −5 to 0° C. for 2 months. Then, it was checked whether turbidity or the like occurred or not in the coating fluid after storage, thereby evaluating the coating fluid storage stability.
The charge transport substances used in evaluation, the results of stability evaluation, and the criteria for the coating fluid stability are shown in the following Table-6.

In the case of `CCOc1ccc(N(c2ccc(/C=C/c3ccc(N(c4ccc(C)cc4)c4ccc(C)cc4)cc3)cc2)c2ccc(/C=C/c3ccc(N(c4ccc(C)cc4)c4ccc(C)cc4)cc3)cc2)cc1` [CTM1], the Storage stability result is given as “Excellent”.

Turning to `Cc1ccc(N(c2ccc(C)cc2)c2ccc(/C=C/c3ccc(N(c4ccc(C)cc4)c4ccc(/C=C/c5ccc(N(c6ccc(C)cc6)c6ccc(C)cc6)cc5)cc4)cc3)cc2)cc1` [RCTM1], the Storage stability entry is “Bad”.

For the origin of these results see patent US9507284B2, “Electrophotographic photoreceptor, electrophotographic photoreceptor cartridge, image-forming apparatus, and triarylamine compound” (MITSUBISHI CHEMICAL CORPORATION, priority 2012, dated 2016).
